Results on 6 compounds are retold here after EP4748837A1, “AROMATIC AMIDE DERIVATIVE, AND PREPARATION METHOD THEREFOR AND USE THEREOF” (Zhejiang Hisun Pharmaceutical Co., Ltd., priority 2023, dated 2025).

In one data set the test system is OVCAR-3 cells. The data set can be described thus: Inhibition of OVCAR-3 cell proliferation (CellTiter-Glo cell viability). The format is cell-based. To be noted: Homo sapiens; OVCAR-3 cells (TP53 R248Q mutation), 72 hours culture with compound; read-out: IC50. The gist of the method: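 OVCAR-3 cells (TP53 R248Q) in RPMI 1640 with 10% FBS were seeded at 1000 cells/well, grown overnight, then exposed to compound (final 1000 nM–0.015 nM) for 72 h at 37°C, 5% CO2. Viability was read by CellTiter-Glo luminescence. IC50 came from nonlinear regression of inhibition relative to 0.3% DMSO control.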

The next data set deals with HT-29 cells. In words: Inhibition of HT-29 cell proliferation (CellTiter-Glo cell viability). It is filed as cell-based. To be noted: Homo sapiens; HT-29 cells (TP53 R273H mutation), 120 hours culture with compound; read-out: IC50. The gist of the method: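 HT-29 cells (TP53 R273H) in McCOY's 5A with 10% FBS, seeded 1000 cells/well overnight, then exposed to compound at 1000 nM–0.015 nM final for 120 hours at 37°C. Viability by CellTiter-Glo luminescence versus 0.3% DMSO control; IC50 by nonlinear regression of log concentration–inhibition.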

Another data set has as its target T1, recombinant human KIF18A (Homo sapiens, UniProt Q8NI77).
T1 construct: purchased GenScript
In words: Inhibition of KIF18A enzyme activity (ADP-Glo assay). The format is biochemical. To be noted: recombinant human KIF18A 100 nM, ATP 60 µM, tubulin, paclitaxel; read-out: IC50. The protocol:
Inhibition degrees of the compounds of the present invention on recombinant human KIF18A enzyme activity in vitro were determined by the following method. An ADP-Glo™ Kinase Assay kit (article number V9102) from Promega Company was used in this method. Detailed experimental operation referred to the instruction of the kit.
An experimental process was briefly described as follows: a test compound was dissolved in DMSO first to prepare a stock solution, then the stock solution was gradiently diluted with a reaction buffer A ([…], 0.01% Pluronic F-68), and a final concentration of the test compound in the reaction system was in a range of 10000 nM-0.15 nM; and a KIF18A protein and ATP working solution was prepared by using a reaction buffer B (15 mM Tris, pH 7.5, 10 mM MgCl2, 0.01% Pluronic F-68, 37.5 µg/ml tubulin, 1.25 µM paclitaxel). The reaction was carried out in a 384-well microplate. The test compound and the recombinant human KIF18A protein (final concentration of 100 nM, entrusted to GenScript for expression) were added into the wells and incubated at room temperature for 20 minutes, and subsequently, an ATP solution (component V915A from the ADP-Glo™ Kinase Assay kit, final concentration of 60 µM) was added to the reaction solution and the system was incubated at room temperature for 20 minutes. Subsequently, 5 µL of ADP-Glo Reagent was added to the reaction systemand the system was incubated at room temperature for 50 minutes. Then, 10 µL of Kinase Detection Reagent was added to the reaction system and the system was incubated at room temperature for 30 minutes. After the incubation was ended, a chemiluminiscence intensity value of each well was determined by a microplate reader in a Luminescence mode.

Data set [1] in a line: Pharmacokinetic testing in mice after intragastric administration. It is filed as in vivo. As to conditions: male, mouse, ICR mice, oral administration 10 mg/kg, plasma. The protocol: ICR mice were taken as test animals, and intragastrically administered with a control compound AMG650 and compounds 47 and 53 of the present invention, and then drug concentrations in plasma at different moments were determined by an LC/MS/MS method, so as to study pharmacokinetic characteristics of the compounds of the present invention in the mice.
Control compound AMG650, and Compounds 47 and 53.
ICR mice, male, 20-22 g, purchased from Vital River Laboratory Animal Technology Co., Ltd.
A proper amount of to-be-tested compound was weighed, proper amounts of DMA, 30% HS-15 and Saline were added in sequence, and the mixture was well mixed by ultrasonic vortex to prepare 1 mg/mL drug preparations respectively, wherein […]: 30% HS-15: Saline=5: 5: 90 (v: v: v).
ICR mice in each to-be-tested compound injection group (9 mice in each group) were fasted overnight and then intragastrically administered with the compound (PO, an administration dosage of the compound was 10 mg/kg and an administration volume of the compound was 10 mL/kg), and were fed 4 hours after administration.
0.25 hours, 0.5 hours, 1 hour, 2 hours, 4 hours, 6 hours, 8 hours and 24 hours before and after administration, about […] of blood was collected through an orbit, and a complete blood sample was placed in an EDTA-K2-containing anticoagulation tube. The collected blood samples were placed on ice, and plasma was centrifugally separated (centrifugation conditions: 1500 g, 10 minutes). The collected plasma was stored at -40°C - -20°C before analysis.
A content of the to-be-tested compound in the plasma of the mice after intragastric administration was determined by LC-MS/MS.

Data set [2] concerns OVCAR-3 human ovarian adenocarcinoma tumor mass. In words: Pharmacodynamic testing in subcutaneous OVCAR-3 xenograft model. The format is in vivo, BALB/c nude mice. As to conditions: 35 days after administration, 8 mg/kg po QD, BALB/c nude mice. The protocol:
Anti-tumor effects and Safeties of the Compounds 47 and 53 of the present invention in a BALB/c nude mouse animal model subjected to subcutaneous xenotransplantation of OVCAR-3 human ovarian adenocarcinoma tumor mass were evaluated.
BALB/c; nude mice, female, 6-7 weeks old, purchased from Jiangsu Gempharmatech Biotechnology Co., Ltd.
Mice in a solvent control group were given DMA: CrEL: 5%GS=10: 10: 80 (v: v: v). AMG650: a proper amount of AMG-650 was weigned, proper amounts of DMA, CrEL and 5% GS were added in sequence, and the mixture was well mixed by ultrasonic vortex to prepare 0.8 mg/mL drug preparations respectively, wherein DMA: CrEL : 5% GS=10: 10: 80 (v: v: v).
Compound 47: a proper amount of Compound 47 was added with proper amounts of DMA, CrEL and 5% GS in sequence, and evenly mixed by ultrasonic vortex to prepare 0.8 mg/mL drug preparations respectively, wherein DMA, CrEL and 5% GS=10: 10: 80 (v: v: v).
Compound 53: a proper amount of Compound 53 was weighed, proper amounts of DMA, CrEL and 5% GS were added in sequence, and the mixture was well mixed by ultrasonic vortex to prepare 0.8 mg/mL drug preparations respectively, wherein DMA: CrEL : 5% GS=10: 10: 80 (v: v: v).
An appropriate OVCAR-3 tumor-bearing animal was selected, and a 1 mm×1 mm×1 mm OVCAR-3 tumor mass was acquired aseptically and placed into normal saline for later use, which was used for subcutaneous tumor inoculation in a right side of back of the BALB/c nude mice.
About 1 mm×1 mm×1 mm OVCAR-3 tumor mass was subcutaneously inoculated in the right side of back of the female BALB/c nude mice. When an average tumor volume reached about 100-250 mm^3, the mice were randomly grouped based on tumor size, with 6 mice in each group.
Animals in each group were given the test compound once per day according to an animal weight at a fixed time every day by oral administration (po), the animals started to be administered with the test compound for the first time on the day of grouping for 35 consecutive days, and the animal weight was recorded every day.
The 1st group (G1) was a solvent control group; and
The 2nd-4th groups […] were orally administered with AMG-650, Compound 47 and Compound 53 at an administration dosage of 8 mg/kg once per day (QD).

T1 sequence (Q8NI77 whole entry): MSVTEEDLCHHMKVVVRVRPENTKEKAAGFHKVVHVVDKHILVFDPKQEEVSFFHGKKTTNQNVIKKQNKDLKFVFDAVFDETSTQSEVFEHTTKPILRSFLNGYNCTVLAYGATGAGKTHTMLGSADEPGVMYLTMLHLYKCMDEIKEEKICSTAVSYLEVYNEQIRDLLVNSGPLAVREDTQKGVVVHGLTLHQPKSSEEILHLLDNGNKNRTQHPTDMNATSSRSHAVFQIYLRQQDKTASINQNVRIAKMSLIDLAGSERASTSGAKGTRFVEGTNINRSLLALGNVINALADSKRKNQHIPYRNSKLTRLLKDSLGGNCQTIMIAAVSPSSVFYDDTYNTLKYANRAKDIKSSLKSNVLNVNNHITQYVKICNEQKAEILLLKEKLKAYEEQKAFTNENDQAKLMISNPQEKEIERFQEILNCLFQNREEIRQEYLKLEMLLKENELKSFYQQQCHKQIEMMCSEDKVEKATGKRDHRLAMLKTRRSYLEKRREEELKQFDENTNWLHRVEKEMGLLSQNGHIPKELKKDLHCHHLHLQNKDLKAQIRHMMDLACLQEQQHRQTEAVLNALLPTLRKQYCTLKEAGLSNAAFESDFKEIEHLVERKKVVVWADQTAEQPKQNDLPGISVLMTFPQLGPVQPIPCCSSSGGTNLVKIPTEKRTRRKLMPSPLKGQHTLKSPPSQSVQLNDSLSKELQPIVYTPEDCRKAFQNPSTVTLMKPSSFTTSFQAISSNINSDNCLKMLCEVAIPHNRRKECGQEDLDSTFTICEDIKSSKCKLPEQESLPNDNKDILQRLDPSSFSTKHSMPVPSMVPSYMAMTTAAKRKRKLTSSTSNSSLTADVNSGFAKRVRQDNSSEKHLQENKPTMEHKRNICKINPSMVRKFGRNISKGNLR
T1 sequence (P68363 whole entry partner): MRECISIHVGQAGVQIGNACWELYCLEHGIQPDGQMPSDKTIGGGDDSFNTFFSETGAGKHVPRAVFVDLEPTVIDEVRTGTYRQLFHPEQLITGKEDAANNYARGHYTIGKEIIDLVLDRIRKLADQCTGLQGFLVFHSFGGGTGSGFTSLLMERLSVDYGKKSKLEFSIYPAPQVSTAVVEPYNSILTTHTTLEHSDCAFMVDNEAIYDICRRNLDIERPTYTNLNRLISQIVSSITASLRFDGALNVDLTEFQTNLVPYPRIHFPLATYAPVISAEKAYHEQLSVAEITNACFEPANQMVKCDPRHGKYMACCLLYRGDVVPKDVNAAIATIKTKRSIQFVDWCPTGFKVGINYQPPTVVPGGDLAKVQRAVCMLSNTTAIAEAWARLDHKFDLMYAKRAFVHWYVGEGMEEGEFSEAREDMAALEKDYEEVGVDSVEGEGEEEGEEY
T1 sequence (Q9BVA1 whole entry partner): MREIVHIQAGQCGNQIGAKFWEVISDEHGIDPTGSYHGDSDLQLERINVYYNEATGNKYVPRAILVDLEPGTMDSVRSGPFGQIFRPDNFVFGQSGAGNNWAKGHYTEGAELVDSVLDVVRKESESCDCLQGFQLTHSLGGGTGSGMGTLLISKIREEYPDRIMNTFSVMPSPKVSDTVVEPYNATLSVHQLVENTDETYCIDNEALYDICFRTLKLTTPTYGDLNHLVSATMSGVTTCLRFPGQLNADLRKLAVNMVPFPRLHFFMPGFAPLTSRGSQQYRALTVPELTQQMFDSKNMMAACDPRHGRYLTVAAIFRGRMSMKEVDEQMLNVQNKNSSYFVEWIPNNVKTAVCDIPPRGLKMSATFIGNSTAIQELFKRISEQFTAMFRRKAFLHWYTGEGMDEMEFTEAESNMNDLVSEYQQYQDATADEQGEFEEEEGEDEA

With `[2H]C([2H])([2H])Oc1ccc(NC(=O)c2ccc(NS(=O)(=O)CCO)cc2N2CCC3(CC2)CC3)cc1N1CCC(F)(F)CC1` [Example 58, N-(3-(4,4-difluoropiperidin-1-yl)-4-(methoxy-d3)phenyl)-4-( (2-hydroxyethyl)sulfonamido) -2-(6-azaspiro[2.5]octan-6-yl) benzamide], the IC50 came out at 0.0022 µM with OVCAR-3 cells, 0.0015 µM in the data set with HT-29 cells and 0.0917 µM on recombinant human KIF18A.
For `CCS(=O)(=O)Nc1ccc(C(=O)Nc2ccc(-c3ncn(C)n3)c(OC3CC(F)(F)C3)c2)c(N2CCC3(CC2)CC3)c1` [Example 45, N-(3-(3,3-difluorocyclobutoxy)-4-(1-methyl-1H-1,2,4-triazol-3-yl)phenyl)-4-(ethylsulfonamido)-2-(6-azaspiro[2.5]octan-6-yl)benzamide], in that order: 0.0025 µM, 0.0062 µM and 0.103 µM.
For `CCS(=O)(=O)Nc1ccc(C(=O)Nc2ccc(-n3cnnn3)c(N3CCC(F)(F)CC3)c2)c(N2CCC3(CC2)CC3)c1` [Example 29, N-(3-(4,4-difluoropiperidin-1-yl)-4-(1H-tetrazol-1-yl)phenyl)-4-(ethylsulfonamido)-2-(6-azaspiro[2.5]octan-6-yl)benzamide], in that order: 0.0159 µM, 0.0184 µM and 0.0795 µM.
As for `CCS(=O)(=O)Nc1ccc(C(=O)Nc2ccc(-c3ccnnc3)c(N3CC(F)(F)C3)c2)c(N2CCC3(CC2)CC3)c1` [Example 19, N-(3-(3,3-difluoroazetidin-1-y 1)-4-(pyridazin-4-yl)phenyl)-4-(ethylsulfonamido)-2-(6-azaspiro[2.5]octan-6-yl)benzamide], the half-maximal inhibitory concentration (IC50) is 0.0063 µM in the data set with OVCAR-3 cells, 0.00044 µM in the data set with HT-29 cells and 0.0986 µM on recombinant human KIF18A.
In the case of `Cc1cc(NC(=O)c2ccc(NS(=O)(=O)CCO)cc2N2CCC3(CC2)CC3)nc(N2CCC(F)(F)CC2)n1` [AMG 650, reference compound], the IC50 was 0.0645 µM in the data set on OVCAR-3 cells and 0.0617 µM with HT-29 cells. In data set [1] (read-out: Area under the curve AUC0-∞), the AUC(0-inf) was found to be 52500 ng·h/mL. Also, the half-life in data set [1] (read-out: Half-life period T1/2 (converted)) is 9.64 h. Also, the Cmax in data set [1] (read-out: Plasma concentration Cmax) came out at 3050 ng/mL. The compound further had a TGI% in data set [2] of 68.1%. Also, the “Tumor volume (x±S)” value in data set [2] (mean value ± standard error, in mm³ (unit assumed)) is 313±76.
`O=C(Nc1ccc(-c2ncccn2)c(N2CCC(F)(F)CC2)c1)c1ccc(NS(=O)(=O)C2CC2)cc1N1CCC2(CC1)CC2` [Example 17, 4-(cyclopropanesulfonamido)-N-(3-(4,4-difluoropiperidin-1-yl)-4-(pyrimidin-2-yl)phenyl)-2-(6-azaspiro[2.5]octan-6-yl)b enzamide]: the concentration for half-maximal inhibition (IC50) with OVCAR-3 cells was determined as 0.0032 µM; with HT-29 cells, 0.0033 µM; on recombinant human KIF18A it was 0.121 µM.
